Laboratory results as given in ChEMBL document CHEMBL1201862, “PubChem BioAssay data set” (2004).
Values joined by “and” are separate entries in the source; they are usually repeats but may differ in a detail not shown here. Equal entries are not always repeated.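 Where inhibition never reached the appropriate level, the endpoint shown equals the highest concentration tested. Otherwise, values were interpolated linearly from a five-concentration, 48-hour dose response in 96-well plates. Abbreviation: GI50, concentration required for 50% inhibition of growth.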 Active and inactive are the calls of the source. Cut-off read from the data, not from the text of the source: active = GI50 up to about 1.1 µM and inactive = higher.

Experiments:
Experiment in all cases: growth of human tumour cells (NCI), 48 h
UACC-62 = test system: UACC-62
HT-29 = test system: HT-29
MDA-MB-435 = test system: MDA-MB-435
SK-MEL-5 = test system: SK-MEL-5
UACC-257 = test system: UACC-257
SF-268 = test system: SF-268
OVCAR-8 = test system: OVCAR-8
HOP-92 = test system: HOP-92
DU-145 = test system: DU-145
IGROV-1 = test system: IGROV-1
CAKI-1 = test system: CAKI-1
SK-MEL-28 = test system: SK-MEL-28
NCI-H23 = test system: NCI-H23
SF-295 = test system: SF-295
HOP-62 = test system: HOP-62
OVCAR-3 = test system: OVCAR-3
786-0 = test system: 786-0
U-251 = test system: U-251
OVCAR-4 = test system: OVCAR-4
CCRF-CEM = test system: CCRF-CEM

SMILES | GI50 (UACC-62) | GI50 (HT-29) | GI50 (MDA-MB-435) | GI50 (SK-MEL-5) | GI50 (UACC-257) | GI50 (SF-268) | GI50 (OVCAR-8) | GI50 (HOP-92) | GI50 (DU-145) | GI50 (IGROV-1) | GI50 (CAKI-1) | GI50 (SK-MEL-28) | GI50 (NCI-H23) | GI50 (SF-295) | GI50 (HOP-62) | GI50 (OVCAR-3) | GI50 (786-0) | GI50 (U-251) | GI50 (OVCAR-4) | GI50 (CCRF-CEM)
O=[N+]([O-])c1ccccc1CSc1nc(O)c2nc[nH]c2n1 | > 100 µM (inactive) and 88.1 µM (inactive) | 72.6 µM (inactive) | > 100 µM (inactive) and 55 µM (inactive) | > 100 µM (inactive) | 81.3 µM (inactive) | > 100 µM (inactive) | > 100 µM (inactive) | > 100 µM (inactive) | > 100 µM (inactive) | > 100 µM (inactive) | 90.4 µM (inactive) | > 100 µM (inactive) | > 100 µM (inactive) | > 100 µM (inactive) and 99.8 µM (inactive) | > 100 µM (inactive) | > 100 µM (inactive) | > 100 µM (inactive) | > 100 µM (inactive) and 96.4 µM (inactive) |  | 
CCOP(=O)(/C=C\n1ccc(=O)[nH]c1=O)OCC | > 100 µM (inactive) | > 100 µM (inactive) | > 100 µM (inactive) | > 100 µM (inactive) | > 100 µM (inactive) | > 100 µM (inactive) | > 100 µM (inactive) |  | > 100 µM (inactive) | > 100 µM (inactive) | > 100 µM (inactive) | > 100 µM (inactive) | > 100 µM (inactive) | > 100 µM (inactive) | > 100 µM (inactive) | > 100 µM (inactive) | > 100 µM (inactive) | > 100 µM (inactive) | > 100 µM (inactive) | > 100 µM (inactive)
CCOC(=O)/C(C(=O)Nc1cccc(C(F)(F)F)c1)=C(/N)N1CCCC1 | > 100 µM (inactive) | > 100 µM (inactive) | > 100 µM (inactive) |  | > 100 µM (inactive) | 54.3 µM (inactive) | 38 µM (inactive) |  | > 100 µM (inactive) | > 100 µM (inactive) | > 100 µM (inactive) | > 100 µM (inactive) | > 100 µM (inactive) | 42.2 µM (inactive) | 44.6 µM (inactive) | > 100 µM (inactive) | 52.6 µM (inactive) | 76.9 µM (inactive) | > 100 µM (inactive) | > 100 µM (inactive)
CC(C)C1=C(Cc2ccccc2)C(=O)O/C1=C\c1ccc(O)c(Cl)c1 | 14.8 µM (inactive) | 18.8 µM (inactive) | 17 µM (inactive) | 16.7 µM (inactive) | 18.8 µM (inactive) | 16.6 µM (inactive) | 18.3 µM (inactive) |  | 18.2 µM (inactive) | 16.8 µM (inactive) | 18.6 µM (inactive) | 16.9 µM (inactive) | 13.1 µM (inactive) | 16 µM (inactive) | 17.7 µM (inactive) | 14.8 µM (inactive) | 16.5 µM (inactive) | 16.7 µM (inactive) | 14.7 µM (inactive) | 15.5 µM (inactive)
N#Cc1ccccc1NC(=O)/C(=N\NC(=O)c1ccncc1)C(c1cnc2ccc([N+](=O)[O-])cc2n1)[N+](=O)[O-] (stereo not given) | > 100 µM (inactive) | > 100 µM (inactive) | 74.8 µM (inactive) | 63.7 µM (inactive) | > 100 µM (inactive) | > 100 µM (inactive) | > 100 µM (inactive) | 86.9 µM (inactive) |  | 95.9 µM (inactive) | > 100 µM (inactive) | > 100 µM (inactive) | > 100 µM (inactive) | > 100 µM (inactive) | > 100 µM (inactive) | > 100 µM (inactive) | > 100 µM (inactive) | > 100 µM (inactive) | > 100 µM (inactive) | 56.4 µM (inactive)
O=C1c2ccccc2-c2cc3ccccc3c(=O)n21 | > 100 µM (inactive) | > 100 µM (inactive) | > 100 µM (inactive) | > 100 µM (inactive) | > 100 µM (inactive) | > 100 µM (inactive) | > 100 µM (inactive) |  | > 100 µM (inactive) | > 100 µM (inactive) |  | > 100 µM (inactive) | > 100 µM (inactive) | > 100 µM (inactive) |  | > 100 µM (inactive) | 68.5 µM (inactive) |  |  | > 100 µM (inactive)
CC12CCC(/C(=N/c3cc(C(F)(F)F)cc(C(F)(F)F)c3)C1=O)C2(C)C (stereo not given) | 31.3 µM (inactive) | 68.5 µM (inactive) | 38.3 µM (inactive) | 48.2 µM (inactive) | 46.6 µM (inactive) | 33.3 µM (inactive) | 81.5 µM (inactive) |  | 40.6 µM (inactive) | 25.2 µM (inactive) | 44 µM (inactive) | 25.8 µM (inactive) | 25.7 µM (inactive) | 41.9 µM (inactive) | 39.8 µM (inactive) | 33.7 µM (inactive) | 35.5 µM (inactive) | 35.4 µM (inactive) | 44 µM (inactive) | 0.453 µM (active)
Cc1ccc(C(=C2Sc3ccccc3S2)C(=C2Sc3ccccc3S2)c2ccc(C)s2)s1 | > 100 µM (inactive) | > 100 µM (inactive) | > 100 µM (inactive) | > 100 µM (inactive) | > 100 µM (inactive) | > 100 µM (inactive) | > 100 µM (inactive) |  | > 100 µM (inactive) | > 100 µM (inactive) | > 100 µM (inactive) | > 100 µM (inactive) | > 100 µM (inactive) | > 100 µM (inactive) | > 100 µM (inactive) | > 100 µM (inactive) | > 100 µM (inactive) | > 100 µM (inactive) | > 100 µM (inactive) | > 100 µM (inactive)
Cc1ccc2nc(-c3ccc(N)c(I)c3)sc2c1 | 32.5 µM (inactive) | 18.9 µM (inactive) | 19.2 µM (inactive) | 29.4 µM (inactive) | 23.7 µM (inactive) | 23.2 µM (inactive) | 67.5 µM (inactive) | 20.1 µM (inactive) |  |  | > 100 µM (inactive) | > 100 µM (inactive) |  | 19.1 µM (inactive) | 28.8 µM (inactive) | 21.8 µM (inactive) | 15.8 µM (inactive) | 26.1 µM (inactive) | 2.09 µM (inactive) | 6.21 µM (inactive)
CC1(C)Oc2ccc3c(=O)cc(-c4ccccc4)oc3c2C1C(=O)O (stereo not given) | > 100 µM (inactive) | > 100 µM (inactive) | > 100 µM (inactive) | > 100 µM (inactive) | > 100 µM (inactive) | > 100 µM (inactive) | > 100 µM (inactive) |  | > 100 µM (inactive) | > 100 µM (inactive) | > 100 µM (inactive) |  | > 100 µM (inactive) | > 100 µM (inactive) | > 100 µM (inactive) | > 100 µM (inactive) | > 100 µM (inactive) | > 100 µM (inactive) | > 100 µM (inactive) | > 100 µM (inactive)
Cc1cc2ccccc2n2c1nc1ccc(O)cc12 | > 10 µM (inactive) | > 10 µM (inactive) | > 10 µM (inactive) | > 10 µM (inactive) | > 10 µM (inactive) | > 10 µM (inactive) | 7.29 µM (inactive) |  | > 10 µM (inactive) | > 10 µM (inactive) | > 10 µM (inactive) | > 10 µM (inactive) | > 10 µM (inactive) | > 10 µM (inactive) | > 10 µM (inactive) | > 10 µM (inactive) | > 10 µM (inactive) | 7.71 µM (inactive) | > 10 µM (inactive) | > 10 µM (inactive)
CCN(CC)CCNc1n[n+]([O-])c2ccccc2[n+]1[O-] | 4.8 µM (inactive) | 5.94 µM (inactive) | 12.5 µM (inactive) | 1.59 µM (inactive) |  | 10.7 µM (inactive) | 7.76 µM (inactive) |  | 12.1 µM (inactive) | 1.81 µM (inactive) |  | 39.4 µM (inactive) |  | 7.93 µM (inactive) | 5.11 µM (inactive) | 7.21 µM (inactive) | 7.85 µM (inactive) | 12.8 µM (inactive) |  | 3.91 µM (inactive)
CC(O[Si](C)(C)C(C)(C)C)[C@H](NC(=O)OCC(Cl)(Cl)Cl)C(=O)O (stereo not given in full) | 53.5 µM (inactive) | > 100 µM (inactive) | > 100 µM (inactive) | > 100 µM (inactive) | > 100 µM (inactive) | > 100 µM (inactive) | > 100 µM (inactive) |  | > 100 µM (inactive) | > 100 µM (inactive) |  | > 100 µM (inactive) | 95.3 µM (inactive) | 51.2 µM (inactive) | > 100 µM (inactive) | 79.6 µM (inactive) | > 100 µM (inactive) | > 100 µM (inactive) | > 100 µM (inactive) | > 100 µM (inactive)
O=C1/C(=C/c2ccccc2)CCc2ccccc21 | 17.9 µM (inactive) | 16.6 µM (inactive) | 14.8 µM (inactive) | 17.7 µM (inactive) | 16.1 µM (inactive) | 19.7 µM (inactive) | 25.6 µM (inactive) |  | 16.2 µM (inactive) | 21.4 µM (inactive) | 17.7 µM (inactive) | 19 µM (inactive) | 19.6 µM (inactive) | 17.7 µM (inactive) | 15.7 µM (inactive) | 16.6 µM (inactive) | 17.5 µM (inactive) | 16.2 µM (inactive) | 14.8 µM (inactive) | 4.02 µM (inactive)
CC[C@H](C)C(=O)O[C@H]1CCC=C2C=C[C@H](C)[C@H](CC[C@@H]3C[C@@H](O)CC(=O)O3)[C@H]21 [MEVASTATIN] | 5.68 µM (inactive) | 36.7 µM (inactive) | 24.1 µM (inactive) | 20.6 µM (inactive) | 50.4 µM (inactive) | 7.31 µM (inactive) | 8.26 µM (inactive) |  | > 92.3 µM (inactive) | 4.43 µM (inactive) | 3.37 µM (inactive) | 60.7 µM (inactive) | 20.1 µM (inactive) | 3.27 µM (inactive) | > 100 µM (inactive) | 30.4 µM (inactive) | 13.3 µM (inactive) | 3.62 µM (inactive) | 43.1 µM (inactive) | 
